Measured values published in patent US10058525B2, “Application of chlorogenic acid in preparing medicines for treating lupus erythematosus” (SICHUAN JIUZHANG BIOLOGICAL SCIENCE AND TECHNOLOGY CO., LTD., priority 2015, dated 2018).
“Also recorded” adds a separate entry of the source.

Columns and labels:
[1] = test system: ENA polypeptide antibodies (anti-Sm, anti-Rib, anti-ssA, anti-ssB); assay: Serologic detection of ENA polypeptide antibodies by immunoblotting in serum of UV + LPS lupus model mice; type: in vivo, BALB/c mice; design: key to Anti-Rib: (+): positive; (−): negative; key to Anti-Sm / Anti-ssA / Anti-ssB: (+): positive; (−): negative; (++++): intenseintensity; (+++): stronger fluorescent intensity; settings: for Anti-Rib / Anti-Sm / Anti-ssA / Anti-ssB: positive controls (artesunate 2 mg/kg*d, prednisone 1 mg/kg*d) by stomach perfusion; for ENA polypeptide antibodies found positive (FIG. 1): treated 14 days, positive controls (artesunate, prednisone)
Procedure: (§1) The back of mice was shaved and acutely exposed to Ultraviolet of 2 h/d*3 d, with a distance of 30 cm. After exposure to UV, 2.5 mg/kg of LPS was administrated once by ip, and after 24 h, the model was successfully established; the mice in the normal control group received normal saline via ip. 24 h after injection of LPS (ip), medicines were given to the model mice by intragastric administration. Chlorogenic acid test groups received high, middle, and low doses of medicines, by intragastric administration at a respective dosage of 10 mg/kg*d, 20 mg/kg*d, and 40 mg/kg*d. The positive control group A received 2 mg/kg*d of artesunate by stomach perfusion, while the positive control group B received 1 mg/kg*d of prednisone by stomach perfusion. Mice in the model and normal control group all received 0.4 ml/mouse normal saline by gavage. After 15 days of administration, animals in each group were taken blood by separating eyeballs on days 14, 21, 28, and after cultured in water bath at 37° C. for 1 h, the blood sample was centrifugated at 2000 r/min for 5 min, to draw serum for use. On day 21, after blood collection, animals were sacrificed by dislocation, followed by collection of liver and kidney, and they were placed in fixative solutions of electron microscope and light microscrope, respectively. Serum of mice was diluted at 1:100 with special buffer solution of Shenzhen Hengjia, and then 200 μL of diluted serum was respectively added to the reactive tank with corresponding number, cultured in the incubator at 37° C. for 30 min, and washed with the buffer solution four times, 2 min for each time; 200 μL of diluted biotin goat anti-mouse IgG (1:100) was added, cultured in the incubator at 37° C. for 30 min, and then washed with the buffer solution four times, 2 min for each time; 100 μL of diluted HRP-avidin (1:100) was added, cultured in the incubator at 37° C. for 30 min, and then washed as mentioned-above; reactive solutions A and B were added till appearance of positive bands, then washed with the buffer solution. Compared with the standard bands of ENA polypeptide antibody spectrum in the same kit, if the positive bands appeared at 28/29,13.5 ku polypeptide; 15,16.5,38 kupolypeptide; 52 kupolypeptide and 47/48,45 kupolypeptide, that can be determined as anti-Sm, anti-Rib, anti-ssA, and anti-ssB positive antibody. Serum was diluted with PBS at 1:40, then 20-30 μL of diluted serum was dropped into the scrobiculus of HEp-2 cell sheets, each cell sheet for each group. In the process of dropping serum, it should be noted that the surface of cell sheet can not be touched. After addition of serum, cell sheet was placed in wet box and kept for 30 min at room temperature (25° C.). After 30 min, the cell sheet was taken out, and serum was carefully washed out with PBS, then carefully washed twice with PBS, 5 min for each time; after washing, the remained PBS was removed by special absorbent paper of […] company (In this process, it should be noted that becoming dry of cell substrates will affect the results). 20-30 μL of diluted (PBS, 1:100) FITC goat anti-mouse IgG was added by dropping, and then incubated in wet box at room temperature for 30 min. After washing with PBS, steps were same to above. The remained PBS was removed by absorbent paper, and 1-2 drops of fluorescent mounting media were added to the cell sheet. The cover glass was mounted, observed under Olympus BH-2 universal microscope, and then photographed.

[2] = test system: ANA; assay: Serologic detection of ANA by immunofluorescence on HEp-2 cell sheets, serum of UV + LPS lupus model mice; type: in vivo, BALB/c mice; settings: artesunate, 28 days, ×200
Procedure: The back of mice was shaved and acutely exposed to Ultraviolet of 2 h/d*3 d, with a distance of 30 cm. After exposure to UV, 2.5 mg/kg of LPS was administrated once by ip, and after 24 h, the model was successfully established; the mice in the normal control group received normal saline via ip. 24 h after injection of LPS (ip), medicines were given to the model mice by intragastric administration. Chlorogenic acid test groups received high, middle, and low doses of medicines, by intragastric administration at a respective dosage of 10 mg/kg*d, 20 mg/kg*d, and 40 mg/kg*d. The positive control group A received 2 mg/kg*d of artesunate by stomach perfusion, while the positive control group B received 1 mg/kg*d of prednisone by stomach perfusion. Mice in the model and normal control group all received 0.4 ml/mouse normal saline by gavage. After 15 days of administration, animals in each group were taken blood by separating eyeballs on days 14, 21, 28, and after cultured in water bath at 37° C. for 1 h, the blood sample was centrifugated at 2000 r/min for 5 min, to draw serum for use. On day 21, after blood collection, animals were sacrificed by dislocation, followed by collection of liver and kidney, and they were placed in fixative solutions of electron microscope and light microscrope, respectively. Serum of mice was diluted at 1:100 with special buffer solution of Shenzhen Hengjia, and then 200 μL of diluted serum was respectively added to the reactive tank with corresponding number, cultured in the incubator at 37° C. for 30 min, and washed with the buffer solution four times, 2 min for each time; 200 μL of diluted biotin goat anti-mouse IgG (1:100) was added, cultured in the incubator at 37° C. for 30 min, and then washed with the buffer solution four times, 2 min for each time; 100 μL of diluted HRP-avidin (1:100) was added, cultured in the incubator at 37° C. for 30 min, and then washed as mentioned-above; reactive solutions A and B were added till appearance of positive bands, then washed with the buffer solution. Compared with the standard bands of ENA polypeptide antibody spectrum in the same kit, if the positive bands appeared at 28/29,13.5 ku polypeptide; 15,16.5,38 kupolypeptide; 52 kupolypeptide and 47/48,45 kupolypeptide, that can be determined as anti-Sm, anti-Rib, anti-ssA, and anti-ssB positive antibody. Serum was diluted with PBS at 1:40, then 20-30 μL of diluted serum was dropped into the scrobiculus of HEp-2 cell sheets, each cell sheet for each group. In the process of dropping serum, it should be noted that the surface of cell sheet can not be touched. After addition of serum, cell sheet was placed in wet box and kept for 30 min at room temperature (25° C.). […]

[3] = test system: lupus erythematosus model mice (renal glomerular capsule wall epithelial cells); assay: Electron microscope observation of kidney samples, lupus model mice; type: in vivo, BALB/c mice; settings: positive controls (artesunate, prednisone), 21 days; compared with the model group
Procedure: (§2) The back of mice was shaved and acutely exposed to Ultraviolet of 2 h/d*3 d, with a distance of 30 cm. After exposure to UV, 2.5 mg/kg of LPS was administrated once by ip, and after 24 h, the model was successfully established; the mice in the normal control group received normal saline via ip. 24 h after injection of LPS (ip), medicines were given to the model mice by intragastric administration. Chlorogenic acid test groups received high, middle, and low doses of medicines, by intragastric administration at a respective dosage of 10 mg/kg*d, 20 mg/kg*d, and 40 mg/kg*d. The positive control group A received 2 mg/kg*d of artesunate by stomach perfusion, while the positive control group B received 1 mg/kg*d of prednisone by stomach perfusion. Mice in the model and normal control group all received 0.4 ml/mouse normal saline by gavage. After 15 days of administration, animals in each group were taken blood by separating eyeballs on days 14, 21, 28, and after cultured in water bath at 37° C. for 1 h, the blood sample was centrifugated at 2000 r/min for 5 min, to draw serum for use. On day 21, after blood collection, animals were sacrificed by dislocation, followed by collection of liver and kidney, and they were placed in fixative solutions of electron microscope and light microscrope, respectively. On day 21, the sample used for observation under electron microscope was fixed in mixed stationary solution of 2% paraformaldehyde+0.25% glutaral for 4 h, rinsed with TBS, treated with 1% osmic acid, followed by fixation for 1 h, rinsed with buffer solution, dehydrated with acetone, dyed with uranyl acetate for 2 h, macerated in Epon812 and embedded, and cut into slices with LEICA ultramicrotome. The slices were stained with lead solution, and the sample was observed under transmission electron microscope when it was dry.

[4] = test system: lupus erythematosus model mice (kidney, liver); assay: Triple staining (silver staining) of kidney and liver sections under light microscope, lupus model mice; type: in vivo, BALB/c mice; settings: positive controls (artesunate, prednisone); for basilar membrane of renal glomerulus and tubule, pathological section: 21 days; for glomerular basement membrane thickness compared with the normal mice (FIG. 9, FIG. 10): 28 days, ×50
Procedure: as §2, with “respectively.” for “respectively. On day 21, the sample used for observation under electron microscope was fixed in mixed stationary solution of 2% paraformaldehyde+0.25% glutaral for 4 h, rinsed with TBS, treated with 1% osmic acid, followed by fixation for 1 h, rinsed with buffer solution, dehydrated with acetone, dyed with uranyl acetate for 2 h, macerated in Epon812 and embedded, and cut into slices with LEICA ultramicrotome. The slices were stained with lead solution, and the sample was observed under transmission electron microscope when it was dry.”
[…] The thickness of slice is 3 μm, and at beginning of staining, wax was routinely deprived to water. After oxidation with 0.5% periodic acid, the slice was macerated in hexamine silver fluid for about 2 h (constant temperature 58° C.), washed with distilled water, dyed with hematoxylin for 1 min. After washing with water, the slice was dyed by dropping the ponceau staining solution for 5 min, differentiated with 70% ethanol, dehydrated with gradient ethanol, cleared with xylene, and sealed with neutral gum.

[5] = test system: ANA; assay: Serologic detection of ANA by immunofluorescence on HEp-2 cell sheets, serum of UV + LPS lupus model mice; type: in vivo, BALB/c mice; design: key: (+): positive; (−): negative; (++++): intenseintensity; (+++): stronger fluorescent intensity; settings: day 14; positive controls (artesunate 2 mg/kg*d, prednisone 1 mg/kg*d) by stomach perfusion
Procedure: as §1

[6] = test system: ANA; assay: as above; type: in vivo, BALB/c mice; design: key: (+): positive; (−): negative; (++++): intense fluorescence; (+++): stronger fluorescence; (++): weeker fluorescence; settings: positive controls (artesunate 2 mg/kg*d, prednisone 1 mg/kg*d) by stomach perfusion
Procedure: as §1

[7] = test system: lupus erythematosus; assay: Screening medicines for treatment of lupus erythematosus; settings: screening of extracts and potency constituents; no method given

| Compound | Anti-Rib ([1]; day 14) | Anti-Sm ([1]; day 14) | Anti-ssA ([1]; day 14) | Anti-ssB ([1]; day 14) | Anti-Rib ([1]; day 21) | Anti-Sm ([1]; day 21) | Anti-ssA ([1]; day 21) | Anti-ssB ([1]; day 21) | Anti-Rib ([1]; day 28) | Anti-Sm ([1]; day 28) | Anti-ssA ([1]; day 28) | Anti-ssB ([1]; day 28) | ENA polypeptide antibodies found positive (FIG. 1) [1] | proliferative degree of renal glomerular capsule wall epithelial cells [3] | basilar membrane of renal glomerulus and tubule, pathological section [4] | glomerular basement membrane thickness compared with the normal mice (FIG. 9, FIG. 10) [4] | ANA [5] | ANA ([6]; day 21) | ANA ([6]; day 28) | inhibition on lupus erythematosus [7] | also measured |
| --- | --- | --- | --- | --- | --- | --- | --- | --- | --- | --- | --- | --- | --- | --- | --- | --- | --- | --- | --- | --- | --- |
| C[C@H]1[C@H](OC(=O)CCC(=O)O)O[C@@H]2O[C@@]3(C)CC[C@H]4[C@H](C)CC[C@@H]1[C@@]24OO3 [Artesunate, artesunate, reference compound] | (+) | (+) | (+) | (+) | (+) | (+) | (+) | (+) | (−) | (+) | (+) | (+) | anti-Sm, anti-ssA and anti-ssB bodies are positive | slightly relieves; also recorded: somewhat relieved | increased thickness compared with the normal mice | increased thickness | (++++) | (+++) | (+++) | – | fluorescence intensity of ANA (FIG. 5) [2]: doesn't decrease |
| C[C@]12C=CC(=O)C=C1CC[C@@H]1[C@@H]2C(=O)C[C@@]2(C)[C@H]1CC[C@]2(O)C(=O)CO [Prednisone, prednisone, reference compound] | (+) | (+) | (+) | (+) | (+) | (+) | (+) | (+) | (+) | (+) | (+) | (+) | anti-Sm, anti-ssA and anti-ssB bodies are positive | slightly relieves; also recorded: somewhat relieved | increased thickness compared with the normal mice | obviously increased thickness | (++++) | (+++) | (+++) | – | – |
| OCC1=C[C@@H](O)[C@@H]2C=CO[C@@H](O[C@@H]3O[C@H](CO)[C@@H](O)[C@H](O)[C@H]3O)[C@H]12 [aucubin] | – | – | – | – | – | – | – | – | – | – | – | – | – | – | – | – | – | – | – | relatively obvious inhibition | – |
| O=C(O)C1=CO[C@@H](O[C@@H]2O[C@H](CO)[C@@H](O)[C@H](O)[C@H]2O)[C@@H]2C(CO)=CC[C@H]12 [geniposidic acid] | – | – | – | – | – | – | – | – | – | – | – | – | – | – | – | – | – | – | – | relatively obvious inhibition | – |
